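Method: 48-hour compound exposure of cells in 96-well plates, five concentrations, linear interpolation of endpoints. Definition used: TGI = concentration required for complete inhibition of growth.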
What was measured:
Assay in all cases: NCI-60 cell line screen, 48 h
A498 renal = test system: A498 renal
CAKI-1 renal = test system: CAKI-1 renal
HL-60(TB) leukemia = test system: HL-60(TB) leukemia
HS 578T breast = test system: HS 578T breast
LOX IMVI melanoma = test system: LOX IMVI melanoma
M14 melanoma = test system: M14 melanoma
MALME-3M melanoma = test system: MALME-3M melanoma
MCF7 breast = test system: MCF7 breast
NCI-H460 lung = test system: NCI-H460 lung
NCI/ADR-RES ovarian = test system: NCI/ADR-RES ovarian
OVCAR-3 ovarian = test system: OVCAR-3 ovarian
TK-10 renal = test system: TK-10 renal
UO-31 renal = test system: UO-31 renal
CCRF-CEM leukemia = test system: CCRF-CEM leukemia

Row | Compound | TGI (A498 renal) [µM] | TGI (CAKI-1 renal) [µM] | TGI (HL-60(TB) leukemia) [µM] | TGI (HS 578T breast) [µM] | TGI (LOX IMVI melanoma) [µM] | TGI (M14 melanoma) [µM] | TGI (MALME-3M melanoma) [µM] | TGI (MCF7 breast) [µM] | TGI (NCI-H460 lung) [µM] | TGI (NCI/ADR-RES ovarian) [µM] | TGI (OVCAR-3 ovarian) [µM] | TGI (TK-10 renal) [µM] | TGI (UO-31 renal) [µM] | TGI (CCRF-CEM leukemia) [µM]
1 | CC[C@@]1(O)C(=O)OCc2c1cc1n(c2=O)Cc2c-1nc1ccccc1c2/C=N\NC(=O)C(C)N (stereo partly specified) | 1.03 | 2.57 | > 100 | > 100 | 0.229 | 5.05 | > 91.9 | > 66.9 | 4.47 | 4.26 | > 100 | > 100 | 2.12 | 
2 | CC1(C)CC[C@]2(C(=O)O)CC[C@]3(C)C(=CC[C@@H]4[C@@]5(C)CC[C@H](OC6OC(CO)C(O)C(O)C6OC6OC(CO)C(O)C(O)C6O)C(C)(C)[C@@H]5CC[C@]43C)[C@@H]2C1 (stereo partly specified) | 34 | 35.4 | 42.8 | 51.9 | 82.4 | 31.2 | 30.1 | 36.7 | 41.5 | 49.2 | 29.9 |  | 35.8 | 46.5
3 | CN(C)/C=N/S(=O)(=O)c1nn2c(C=O)c(-c3ccc(-c4ccc([N+](=O)[O-])cc4)o3)nc2s1 | 54.2 | 4.06 | 2.54 | > 21.8 | > 25 |  | 4.15 | > 32.6 | 8.42 | > 96.6 | 8.41 | 15.1 | 5.99 | 3.98
4 | CCN(CC)c1nc(N(C)C)c2cc(OC)ccc2n1 | > 100 | > 100 | 67 | > 100 | > 100 | > 100 | 62 | > 100 | > 100 | > 100 | > 100 | > 100 | > 100 | 
5 | Cc1n[nH]c(=O)n1N1C(=O)c2ccccc2C1=O | > 100 | > 100 |  | > 100 | > 100 | > 100 | > 100 | > 100 | > 100 | > 100 | > 100 | > 100 | > 100 | > 100
6 | CCNCCNC(=O)c1ccc(Br)cc1 | > 100 | > 100 | > 100 | > 100 | > 100 | > 100 |  | > 100 | > 100 | > 100 | > 100 | > 100 | > 100 | > 100
7 | Cc1cc(-c2nc3cc(F)c(F)cc3s2)ccc1N | > 100 | > 100 | > 100 | > 100 | > 100 | > 100 | > 100 | > 100 | > 100 | > 100 | > 100 |  | > 100 | > 100
8 | O=C1O[C@H]2[C@@H]3OC(=O)c4cc(O)c(O)c(O)c4-c4c(cc(O)c(O)c4O)C(=O)OC[C@H]2O[C@@H](OC(=O)c2cc(O)c(O)c(O)c2)[C@@H]3OC(=O)c2cc(O)c(O)c3c2[C@@H]2C1=CC(=O)C(O)(O)C2(O)O3 (stereo partly specified) | > 100 | 27.5 | > 100 | > 100 | 26.1 | > 100 | > 100 | 50.6 | > 100 | > 100 | > 100 |  | > 100 | > 100
9 | CCCCCCCCCCCCP(=O)(O)OCC(N)C(=O)O (stereo unspecified) | 70.6 | > 100 | 36.1 | 58.2 | > 100 | > 100 | > 100 | > 100 | 89.6 | > 100 | 36.5 | > 100 | 26 | 
10 | C/C(=N\Nc1nc2ccccc2o1)c1ccncn1 | 10.7 | 42.6 | 0.0585 | 27.1 | > 37.1 |  | 97.5 | > 43.8 | > 42.6 | 0.84 |  | > 63.4 | 75.5 | > 100
11 | COC(=O)[C@@H]1C[C@]2(CC=C(C)C)c3ccccc3N(S(=O)(=O)c3ccccc3)[C@@H]2N1C(=O)OC |  | > 100 | 33.5 | 66.9 | > 100 |  | > 100 | 48.5 | 94 | 83.1 | > 100 | > 100 | > 100 | > 100
12 | CN(C(=O)c1cccs1)C(=S)N1CCN(c2ccccc2)CC1 |  |  | > 100 | > 100 | > 100 | > 100 | > 100 | > 100 | > 100 |  | > 100 | > 100 | > 100 | > 100
13 | O=C1NN(c2ccccc2)C(=O)C2C3c4ccccc4C(c4ccccc43)C12 (stereo unspecified) | > 100 | > 100 |  | > 100 | > 100 | > 100 | > 100 | > 100 | > 100 | > 100 | > 100 | > 100 | > 100 | > 100
14 | COc1cc(OC)nc(Nc2c(C#N)c3nc4ccccc4n3c3ccccc23)n1 |  | > 100 | > 100 | > 100 | > 100 | > 100 |  | > 100 | > 100 | > 100 | > 100 | 74.2 | > 100 | > 100
15 | CC(=O)Nc1ccc(-c2nc3ccccc3s2)cc1O | > 100 | > 100 |  | > 100 | > 100 | > 100 |  |  | > 100 | 64.4 | > 100 | > 100 | > 100 | > 100
16 | O=C(/C(=C/c1cccs1)c1ccccc1)c1ccccc1 | > 100 | > 100 | > 100 | > 100 | > 100 | > 100 |  | > 100 | > 100 | > 100 | > 100 | > 100 | > 100 | > 100
17 | CC1OC(OC2CC(O)(C(=O)CO)Cc3c(O)c4c(c(O)c32)C(=O)c2ccccc2C4=O)CC(N)C1O (stereo unspecified) | 0.0526 | 0.088 | < 0.0173 | 0.113 | 0.029 | 0.229 | 0.0864 |  | 0.0366 |  | 1.32 |  | 0.267 | 
18 | CCCCP(CCCC)(CCCC)=C(C(=O)OC)C(C(=O)OC)=C1SC(C(=O)OC)=C(C(=O)OC)S1 |  |  |  | 43.7 | 28.5 | 30.2 | 41.1 | 30.9 | 35.9 |  | 53.1 | > 100 | 51.4 | 
19 | CC[C@]12C=CCN3CCC4(c5cc([C@@]6(C(=O)OC)CC7CN(CCc8c6[nH]c6ccccc86)C[C@@H]6CCC[C@H]76)c(OC)cc5N(C)C4[C@](O)(C(=O)OC)C1OC(C)=O)C32 (stereo partly specified) | 0.816 | > 10 | 0.289 |  | > 10 | > 3.45 | > 5.04 | > 10 | > 4.71 | 4.75 | 0.337 | > 10 | > 10 | > 10
20 | CCNCCCCNCC | > 3750 | > 3750 | > 1190 |  | > 3750 |  | > 3750 | > 3750 | > 1190 | > 3750 | > 3750 |  | > 3400 | > 3750
21 | S=C1SC(c2ccc(Cl)cc2)(c2ccc(Cl)cc2)c2ccccc21 | > 100 | > 100 |  | > 100 | > 100 | > 100 | > 100 | > 100 | > 100 | > 100 | > 100 | > 100 | > 100 | > 100
22 | CCOP(C)(=O)C(Nc1ccc(F)cc1)c1ccc(F)cc1 (stereo unspecified) | > 100 | > 100 | > 100 | > 100 | > 100 | > 100 | > 100 |  | > 100 | > 100 | > 100 | > 100 | > 100 | > 100
23 | OCSc1nn(CO)c(=S)s1 |  | > 100 | 54 | 42.4 | 40.7 | 38.2 | 44.8 | 35.9 | 54.5 | 45.1 | 48.4 | > 100 |  | 55.1
24 | CCNc1ncnc2n[nH]nc12 | > 100 | > 100 | > 100 |  | > 100 | > 100 | > 100 | > 100 |  | > 100 | > 100 | > 100 | > 100 | > 100
25 | COC1(C)C=NCC(C)(C)NC(=O)C(C)(OC)C=NCC(C)(C)NC1=O (stereo unspecified) |  | > 10 | > 10 | > 10 |  | > 10 | > 10 | > 10 |  | > 10 |  | > 10 |  | > 10
26 | COc1ccc(-c2nnc(CCCCCCCCc3nnc(-c4ccc(OC)cc4)o3)o2)cc1 | > 100 | > 100 | > 100 |  | > 100 | > 100 | > 100 | > 100 | > 100 | > 100 | > 100 | > 100 | > 100 | > 100
